From patent publication US7932270B2 (Cytokinetics, Inc., priority 2006, dated 2011)

Target: T1, chicken gizzard smooth muscle myosin subfragment-1 chemically crosslinked to cardiac or skeletal actin (Gallus gallus, UniProt P10587)
T1 construct: chicken gizzard smooth muscle myosin subfragment-1; from tissue; host or cells: chicken gizzard
Assay: Smooth muscle myosin ATPase dose response assay (pyruvate kinase/horseradish peroxidase/pyruvate oxidase-coupled, amplex red fluorescence)
Type: biochemical
Details: read-out: IC50 Arithmetic Mean
Procedure, shortened: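 Inhibition is measured in a peroxidase/pyruvate oxidase-linked format at pH 7.00 and 22° C, 0.15 mM ATP final. Myosin input is titrated to a target turnover since active fraction differs between preparations.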

T1 sequence (P02607 2-151): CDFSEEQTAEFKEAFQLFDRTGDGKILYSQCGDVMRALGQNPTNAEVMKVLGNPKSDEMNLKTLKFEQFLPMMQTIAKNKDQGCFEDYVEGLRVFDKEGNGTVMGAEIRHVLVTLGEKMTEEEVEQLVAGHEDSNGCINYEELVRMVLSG
T1 sequence (P10587 84-789): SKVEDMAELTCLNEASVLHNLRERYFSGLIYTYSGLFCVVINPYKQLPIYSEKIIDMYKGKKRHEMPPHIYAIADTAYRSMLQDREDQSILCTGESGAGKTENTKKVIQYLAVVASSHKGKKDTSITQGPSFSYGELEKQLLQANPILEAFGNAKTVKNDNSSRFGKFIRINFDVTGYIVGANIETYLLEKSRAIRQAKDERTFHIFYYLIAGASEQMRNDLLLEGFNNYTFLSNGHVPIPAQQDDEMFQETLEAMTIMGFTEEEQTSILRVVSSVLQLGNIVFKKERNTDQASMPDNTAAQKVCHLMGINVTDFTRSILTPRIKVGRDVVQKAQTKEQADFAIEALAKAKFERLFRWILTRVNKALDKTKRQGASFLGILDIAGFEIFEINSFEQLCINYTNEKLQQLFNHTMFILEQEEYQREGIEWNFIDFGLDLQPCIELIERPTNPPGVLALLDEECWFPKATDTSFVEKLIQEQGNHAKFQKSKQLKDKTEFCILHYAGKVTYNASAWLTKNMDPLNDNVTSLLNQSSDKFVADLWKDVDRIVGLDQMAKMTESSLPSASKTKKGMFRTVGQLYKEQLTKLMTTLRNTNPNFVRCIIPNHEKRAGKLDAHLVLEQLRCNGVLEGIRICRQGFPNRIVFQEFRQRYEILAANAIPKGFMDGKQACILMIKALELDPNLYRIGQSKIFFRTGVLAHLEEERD

With `N#Cc1ccccc1-c1ccc(C(=O)NC[C@@H]2CCCN2)c(NCCc2cccc(F)c2)n1` [N-[((2S)pyrrolidin-2-yl)methyl](6-(2-cyanophenyl)-2-{[2-(3-fluorophenyl)ethyl]amino}(3-pyridyl))carboxamide] the IC50 was 4570 nM.
Work on `COC(=O)[C@H](C)CNC(=O)c1cc(F)c(-c2cnn(C)c2)nc1NCCc1cccc(F)c1` [methyl (2R)-3-[(5-fluoro-2-{[2-(3-fluorophenyl)ethyl]amino}-6-(1-methylpyrazol-4-yl)(3-pyridyl))carbonylamino]-2-methylpropanoate] yielded an IC50 of 100 nM.
In the case of `CC(C)(C)OC(=O)N1CCC[C@@H]1CNC(=O)c1cc(C#N)c(-c2cn[nH]c2)nc1NCCc1cccc(F)c1` [tert-butyl (2R)-2-{[(5-cyano-2-{[2-(3-fluorophenyl)ethyl]amino}-6-pyrazol-4-yl(3-pyridyl))carbonylamino]methyl}pyrrolidinecarboxylate], the IC50 is reported as 6410 nM.
Compound `C[C@@H](CNC(=O)c1ccc(-c2ccccc2C#N)nc1NCCc1cccc(F)c1)N(C)S(C)(=O)=O` [N-{(2S)-2-[methyl(methylsulfonyl)amino]propyl}(6-(2-cyanophenyl)-2-{[2-(3-fluorophenyl)ethyl]amino}(3-pyridyl))carboxamide] has an IC50 of 5840 nM.
Compound `O=C(NCc1cccnc1)c1ccc(-c2ccccc2)nc1NCCc1cccc(Cl)c1` [(2-{[2-(3-chlorophenyl)ethyl]amino}-6-phenyl(3-pyridyl))-N-(3-pyridylmethyl)carboxamide] has an IC50 of 349 nM.
`N#Cc1ccccc1-c1ccc(C(=O)NCC2CCCCCN2C(=O)CN)c(NCCc2cccc(F)c2)n1` (stereo not shown) [N-{[1-(2-aminoacetyl)azaperhydroepin-2-yl]methyl}(6-(2-cyanophenyl)-2-{[2-(3-fluorophenyl)ethyl]amino}(3-pyridyl))carboxamide] showed an IC50 of 248 nM.
`CS(=O)(=O)NC(=O)CNC(=O)c1ccc(-c2ccccc2C#N)nc1NCCc1cccc(F)c1` [2-[(6-(2-cyanophenyl)-2-{[2-(3-fluorophenyl)ethyl]amino}(3-pyridyl))carbonylamino]-N-(methylsulfonyl)acetamide] showed an IC50 of 24900 nM.
Work on `N#Cc1ccccc1-c1nc(NCCc2cccc(F)c2)c(C(=O)NC[C@H]2CCCN2C(=O)C(O)CO)cc1F` (stereo partly drawn) [N-{[(2R)-1-(2,3-dihydroxypropanoyl)pyrrolidin-2-yl]methyl}(6-(2-cyanophenyl)-5-fluoro-2-{[2-(3-fluorophenyl)ethyl]amino}(3-pyridyl))carboxamide] yielded an IC50 of 110 nM.
`O=C(NCc1ccccn1)c1ccc(-c2ccc(CO)s2)nc1NCCc1cccc(F)c1` [(2-{[2-(3-fluorophenyl)ethyl]amino}-6-[5-(hydroxymethyl)(2-thienyl)](3-pyridyl))-N-(2-pyridylmethyl)carboxamide] gave an IC50 of 45 nM.
Compound `CNC(=O)[C@@H](CO)NC(=O)c1ccc(-c2ccccc2C#N)nc1NCCc1cccc(F)c1` [(2R)-2-[(6-(2-cyanophenyl)-2-{[2-(3-fluorophenyl)ethyl]amino}(3-pyridyl))carbonylamino]-3-hydroxy-N-methylpropanamide] has an IC50 of 544 nM.
In the case of `N#Cc1ccccc1-c1ccc(C(=O)N[C@H](CN)C(N)=O)c(NCCc2cccc(F)c2)n1` [N-((1R)-2-amino-1-carbamoylethyl)(6-(2-cyanophenyl)-2-{[2-(3-fluorophenyl)ethyl]amino}(3-pyridyl))carboxamide], the IC50 is reported as 538 nM.
`C[C@H](CNC(=O)c1ccc(-c2ccccc2C#N)nc1NCCc1cccc(F)c1)NC(=O)CCCNC(=O)OC(C)(C)C` was tested, and the IC50 was 49 nM.
For `COC(=O)[C@H](CO)NC(=O)c1ccc(-c2ccccc2C#N)nc1NCCc1cccc(F)c1` [methyl (2S)-2-[(6-(2-cyanophenyl)-2-{[2-(3-fluorophenyl)ethyl]amino}(3-pyridyl))carbonylamino]-3-hydroxypropanoate], the IC50 was 4180 nM.
`N#Cc1ccc(-c2ccc(C(=O)NCc3cccnc3)c(NCCc3cccc(F)c3)n2)s1` [(6-(5-cyano(2-thienyl))-2-{[2-(3-fluorophenyl)ethyl]amino}(3-pyridyl))-N-(3-pyridylmethyl)carboxamide] showed an IC50 of 280 nM.
Work on `CNC(=O)NCCNC(=O)c1ccc(-c2ccccc2C#N)nc1NCCc1cccc(F)c1` [(6-(2-cyanophenyl)-2-{[2-(3-fluorophenyl)ethyl]amino}(3-pyridyl))-N-{2-[(methylamino)carbonylamino]ethyl}carboxamide] yielded an IC50 of 866 nM.
With `N#Cc1ccccc1-c1nc(NCCc2cccc(F)c2)c(C(=O)NC[C@H]2CCCN2C(=O)CCCN)cc1F` [N-{[(2R)-1-(4-aminobutanoyl)pyrrolidin-2-yl]methyl}(6-(2-cyanophenyl)-5-fluoro-2-{[2-(3-fluorophenyl)ethyl]amino}(3-pyridyl))carboxamide] the IC50 was 38 nM.
`CNC(=O)[C@@H](C)NC(=O)c1ccc(-c2ccccc2C#N)nc1NCCc1cccc(F)c1` [(2R)-2-[(6-(2-cyanophenyl)-2-{[2-(3-fluorophenyl)ethyl]amino}(3-pyridyl))carbonylamino]-N-methylpropanamide] showed an IC50 of 1270 nM.
Compound `O=C(NCc1cccnc1)c1ccc(-c2ccsc2)nc1NCCc1cccc(F)c1` [(2-{[2-(3-fluorophenyl)ethyl]amino}-6-(3-thienyl)(3-pyridyl))-N-(3-pyridylmethyl)carboxamide] has an IC50 of 48 nM.
Work on `CC(C)(C)OC(=O)NCc1ncccc1CNC(=O)c1cc(F)c(-c2ccccc2C#N)nc1NCCc1cccc(F)c1` [N-[(2-{[(tert-butoxy)carbonylamino]methyl}(3-pyridyl))methyl](6-(2-cyanophenyl)-5-fluoro-2-{[2-(3-fluorophenyl)ethyl]amino}(3-pyridyl))carboxamide] yielded an IC50 of 5360 nM.
Compound `N#Cc1ccccc1-c1ccc(C(=O)NC[C@H]2CCCCN2C(=O)OCCN)c(NCCc2cccc(F)c2)n1` [2-aminoethyl (2R)-2-{[(6-(2-cyanophenyl)-2-{[2-(3-fluorophenyl)ethyl]amino}(3-pyridyl))carbonylamino]methyl}piperidinecarboxylate] has an IC50 of 91 nM.
In the case of `C[C@@H](CNC(=O)c1ccc(-c2ccccc2C#N)nc1NCCc1cccc(F)c1)NS(C)(=O)=O` [N-{(2S)-2-[(methylsulfonyl)amino]propyl}(6-(2-cyanophenyl)-2-{[2-(3-fluorophenyl)ethyl]amino}(3-pyridyl))carboxamide], the IC50 is reported as 1210 nM.
For `N#Cc1ccccc1-c1ccc(C(=O)NC[C@H]2CCCCN2)c(NCCc2cccc(F)c2)n1` [N-[((2R)(2-piperidyl))methyl](6-(2-cyanophenyl)-2-{[2-(3-fluorophenyl)ethyl]amino}(3-pyridyl))carboxamide], the IC50 was 1160 nM.
Work on `CC(C)(C)OC(=O)N1CC[C@@H]1CNC(=O)c1cc(F)c(-c2cn[nH]c2)nc1NCCc1cccc(F)c1` [tert-butyl (2R)-2-{[(5-fluoro-2-{[2-(3-fluorophenyl)ethyl]amino}-6-pyrazol-4-yl(3-pyridyl))carbonylamino]methyl}azetidinecarboxylate] yielded an IC50 of 289 nM.
Compound `CC1(C)OCC(CNC(=O)c2ccc(-c3ccccc3C#N)nc2NCCc2cccc(F)c2)CO1` [N-[(2,2-dimethyl(1,3-dioxan-5-yl))methyl](6-(2-cyanophenyl)-2-{[2-(3-fluorophenyl)ethyl]amino}(3-pyridyl))carboxamide] has an IC50 of 1020 nM.
`Cn1cc(-c2ccc(C(=O)NC[C@H]3CCC(=O)N3)c(NCCc3cccc(F)c3)n2)cn1` [N-[((2R)-5-oxopyrrolidin-2-yl)methyl](2-{[2-(3-fluorophenyl)ethyl]amino}-6-(1-methylpyrazol-4-yl)(3-pyridyl))carboxamide] was tested, and the IC50 was 156 nM.
